Experimental data taken from patent US6689750B1, “Bactericide compositions prepared and obtained from microccus varians” (priority 1995, dated 2004).

How the values were obtained:
[1] = test system: Lactobacillus helveticus (N 2); experiment: Inactivation by enzymes, agar well test; type: physicochemical; conditions: two indicator strains
Gram-negative bacteria = experiment: Inhibition spectrum, agar well test, summary; type: cell-based; conditions: Table V
Text: The inhibition spectrum of the supernatant is thus determined.

[2] = test system: strain of Lactococcus lactis which produces lacticin 481; experiment: Inhibition spectrum test on the lacticin 481 producer; type: cell-based
Text: When the strain of Lactococcus lactis which produces lacticin 481 is inoculated in the presence of a […] extract, as previously described in the inhibition spectrum test, the growth of the said strain is seen to be inhibited. The strain of Lactococcus lactis which produces lacticin 481 is immune to its own bacteriocin, lacticin 481, but is not immune to the […] produced by either of the two Micrococcus varians strains according to the present invention.

Substance | influence of catalase on bactericidal activity [1] | inhibitory effect on the growth of Gram-negative bacteria (Gram-negative bacteria) | growth of the lacticin 481 producing strain [2]
variacin: bacteriocin from Micrococcus varians strains CNCM I-1586 and CNCM I-1587, amino acid sequence SEQ ID NO:1 (GSGVIPTISHECHMNSFQFVFTCCS) | not found to exert any influence | does not exert any inhibitory effect | –
lacticin 481 | – | – | immune
